Test results published in PMC10791936, “Engineering allosteric inhibition of homoserine dehydrogenase by semi-rational saturation mutagenesis screening” (Frontiers in Bioengineering and Biotechnology, 2024).

Assays:
[1] = target: T1, CgHSD (Corynebacterium glutamicum, UniProt P08499, G378E); assay: enzyme activity inhibition, NADPH formation; type: biochemical; conditions: allosteric; 50 mM L-threonine; stated gain
T1 construct: gene hom; full-length hom in pET-28a, N-terminal His6 tag, expressed in E. coli Transetta (DE3), Ni purified; homotetramer by SEC
T1 sequence (P08499 whole entry G378E): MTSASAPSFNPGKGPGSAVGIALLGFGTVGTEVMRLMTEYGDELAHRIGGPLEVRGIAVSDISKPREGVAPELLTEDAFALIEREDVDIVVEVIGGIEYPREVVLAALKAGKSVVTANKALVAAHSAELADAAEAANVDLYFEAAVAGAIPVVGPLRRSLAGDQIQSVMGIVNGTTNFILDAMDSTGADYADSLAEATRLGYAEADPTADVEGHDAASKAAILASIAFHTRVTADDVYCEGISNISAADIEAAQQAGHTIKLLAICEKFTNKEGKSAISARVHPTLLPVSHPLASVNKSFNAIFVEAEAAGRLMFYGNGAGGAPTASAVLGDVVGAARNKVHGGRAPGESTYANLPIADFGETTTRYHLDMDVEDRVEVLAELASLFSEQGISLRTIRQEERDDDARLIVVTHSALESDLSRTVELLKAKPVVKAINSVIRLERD

[2] = target: T2, CgHSD (Corynebacterium glutamicum, UniProt P08499, A384D); assay: enzyme activity inhibition, NADPH formation; type: biochemical; conditions: allosteric; 10 mM L-threonine; stated gain
T2 construct: gene hom; full-length hom in pET-28a, N-terminal His6 tag, expressed in E. coli Transetta (DE3), Ni purified; homotetramer by SEC

[3] = target: T3, CgHSD (Corynebacterium glutamicum, UniProt P08499); assay: enzyme activity inhibition, NADPH formation; type: biochemical; conditions: feedback inhibitor, allosteric; 1 mM L-threonine
T3 construct: gene hom; full-length hom in pET-28a, N-terminal His6 tag, expressed in E. coli Transetta (DE3), Ni purified; homotetramer by SEC

[4] = target: T4, CgHSD (Corynebacterium glutamicum, UniProt P08499, I397V); assay: enzyme activity inhibition, NADPH formation; type: biochemical; conditions: allosteric; 10 mM L-threonine; stated gain
T4 construct: gene hom; full-length hom in pET-28a, N-terminal His6 tag, expressed in E. coli Transetta (DE3), Ni purified; homotetramer by SEC

[5] = target: T4, CgHSD; assay: enzyme activity inhibition, NADPH formation; type: biochemical; conditions: allosteric; 50 mM L-isoleucine; stated gain
[6] = target: T1, CgHSD; assay: enzyme activity inhibition, NADPH formation; type: biochemical; conditions: allosteric; 50 mM L-isoleucine; stated gain
[7] = target: T2, CgHSD; assay: enzyme activity inhibition, NADPH formation; type: biochemical; conditions: allosteric; 50 mM L-isoleucine; stated gain
[8] = target: T3, CgHSD; assay: enzyme activity inhibition, NADPH formation; type: biochemical; conditions: feedback inhibitor, allosteric; 5 mM L-isoleucine
[9] = target: the molecule itself; assay: SEC; apparent molecular mass from a standard curve; peaks at 11.8 mL of elution volume; column and buffer not shown (Supplementary Figure S2)

## C[C@@H](O)[C@H](N)C(=O)O [L-threonine]
[1]
  % retained activity at 50 mM: 52.7%
[2]
  % activity kept at 10 mM: > 90%
[3]
  % activity loss at 1 mM: > 80%
[4]
  % activity kept at 10 mM: > 90%

## CC[C@H](C)[C@H](N)C(=O)O [L-isoleucine]
[5]
  % activity maintained at 50 mM: 50.1%
[6]
  % activity maintained at 50 mM: 61.0%
[7]
  % activity maintained at 50 mM: 76.5%
[8]
  % activity loss at 5 mM: > 75%

B1: Homoserine dehydrogenase from Corynebacterium glutamicum (CgHSD), wild type (enzyme, Corynebacterium glutamicum ATCC 13032, UniProt P08499 1-445, looked up)
chain: MTSASAPSFNPGKGPGSAVGIALLGFGTVGTEVMRLMTEYGDELAHRIGGPLEVRGIAVSDISKPREGVAPELLTEDAFALIEREDVDIVVEVIGGIEYPREVVLAALKAGKSVVTANKALVAAHSAELADAAEAANVDLYFEAAVAGAIPVVGPLRRSLAGDQIQSVMGIVNGTTNFILDAMDSTGADYADSLAEATRLGYAEADPTADVEGHDAASKAAILASIAFHTRVTADDVYCEGISNISAADIEAAQQAGHTIKLLAICEKFTNKEGKSAISARVHPTLLPVSHPLASVNKSFNAIFVEAEAAGRLMFYGNGAGGAPTASAVLGDVVGAARNKVHGGRAPGESTYANLPIADFGETTTRYHLDMDVEDRVGVLAELASLFSEQGISLRTIRQEERDDDARLIVVTHSALESDLSRTVELLKAKPVVKAINSVIRLERD
notes: Homoserine dehydrogenase (hom gene) of Corynebacterium glutamicum ATCC 13032, amplified from genomic DNA into pET-28a (pET-hom); printed mass of the monomer 46.4 kDa; also called wild-type CgHSD
[9]
  stoichiometry N: 4

B2: Homoserine dehydrogenase from Corynebacterium glutamicum (CgHSD), I397V mutant (enzyme, Corynebacterium glutamicum ATCC 13032, UniProt P08499 1-445, looked up)
chain: MTSASAPSFNPGKGPGSAVGIALLGFGTVGTEVMRLMTEYGDELAHRIGGPLEVRGIAVSDISKPREGVAPELLTEDAFALIEREDVDIVVEVIGGIEYPREVVLAALKAGKSVVTANKALVAAHSAELADAAEAANVDLYFEAAVAGAIPVVGPLRRSLAGDQIQSVMGIVNGTTNFILDAMDSTGADYADSLAEATRLGYAEADPTADVEGHDAASKAAILASIAFHTRVTADDVYCEGISNISAADIEAAQQAGHTIKLLAICEKFTNKEGKSAISARVHPTLLPVSHPLASVNKSFNAIFVEAEAAGRLMFYGNGAGGAPTASAVLGDVVGAARNKVHGGRAPGESTYANLPIADFGETTTRYHLDMDVEDRVGVLAELASLFSEQGISLRTVRQEERDDDARLIVVTHSALESDLSRTVELLKAKPVVKAINSVIRLERD
[9]
  stoichiometry N: 4

B3: Homoserine dehydrogenase from Corynebacterium glutamicum (CgHSD), A384D mutant (enzyme, Corynebacterium glutamicum ATCC 13032, UniProt P08499 1-445, looked up)
chain: MTSASAPSFNPGKGPGSAVGIALLGFGTVGTEVMRLMTEYGDELAHRIGGPLEVRGIAVSDISKPREGVAPELLTEDAFALIEREDVDIVVEVIGGIEYPREVVLAALKAGKSVVTANKALVAAHSAELADAAEAANVDLYFEAAVAGAIPVVGPLRRSLAGDQIQSVMGIVNGTTNFILDAMDSTGADYADSLAEATRLGYAEADPTADVEGHDAASKAAILASIAFHTRVTADDVYCEGISNISAADIEAAQQAGHTIKLLAICEKFTNKEGKSAISARVHPTLLPVSHPLASVNKSFNAIFVEAEAAGRLMFYGNGAGGAPTASAVLGDVVGAARNKVHGGRAPGESTYANLPIADFGETTTRYHLDMDVEDRVGVLAELDSLFSEQGISLRTIRQEERDDDARLIVVTHSALESDLSRTVELLKAKPVVKAINSVIRLERD
[9]
  stoichiometry N: 4
